Reference: the supplement of paper PMC10307832

Key:
Experiment in all cases: relative viability (nuclei count vs DMSO), 5 days (fraction); higher = more cells survive
[1] = compound: Cn1cc(-c2cnn3c(N)c(Br)c([C@@H]4CCCNC4)nc23)cn1
Procedure, shortened: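 A plate was accepted only when its control CV was below 25% and the cells had doubled at least once. Viability is defined from nuclear counts as treated wells divided by vehicle wells, with the median taken across plates. That median covers lung cancer cell lines grown in 1536-well plates, dosed by pinning at five √10-spaced library-drug concentrations, and counted in MetaXpress from 4× Hoechst images after 5 days.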

[2] = compound: Cn1cc(-c2cnn3c(N)c(Br)c([C@@H]4CCCNC4)nc23)cn1 + CC(=O)c1c(C)c2cnc(Nc3ccc(N4CCNCC4)cn3)nc2n(C2CCCC2)c1=O [Palbociclib] (partner 0.5 µM)
Procedure, shortened: (§1)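 A single step with final 0.05% Triton X-100, 1% formaldehyde and 1 ug/ml Hoechst fixed the cells and stained nuclei 5 days after treatment. Lung cancer cell lines in 1536-well plates had been treated by pin tool the day after seeding with one drug alone or a fixed anchor-drug dose plus five library-drug doses (not always all listed) in √10 steps, and nuclei were counted on 4× images. Relative viability is the ratio of nuclei in treated wells to nuclei in vehicle wells, taken as the median of duplicate plates.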

[3] = compound: Cn1cc(-c2cnn3c(N)c(Br)c([C@@H]4CCCNC4)nc23)cn1 + COc1cc2c(Oc3ccc(NC(=O)C4(C(=O)Nc5ccc(F)cc5)CC4)cc3F)ccnc2cc1OCCCN1CCOCC1 [Foretinib] (partner 0.25 µM)
Procedure, shortened: as §1

[4] = compound: Cn1cc(-c2cnn3c(N)c(Br)c([C@@H]4CCCNC4)nc23)cn1 + COc1cccc2cc(-c3nc([C@H]4CC[C@H](C(=O)O)CC4)n4ncnc(N)c34)[nH]c12 [OSI-027] (partner 0.5 µM)
Procedure, shortened: as §1

NCI-H727 was tested, and the relative viability ([1]; 0.05 µM) was 0.964, the relative viability ([1]; 0.1581 µM) was 1.07 and the relative viability ([1]; 0.5 µM) was 0.941. For the same cell line, the relative viability ([1]; 1.581 µM) was 0.82, the relative viability ([1]; 5 µM) was 0.57 and the relative viability ([2]; first compound 0.05 µM) was 0.646. The relative viability ([2]; first compound 0.1581 µM) was 0.686, the relative viability ([2]; first compound 0.5 µM) was 0.589 and the relative viability ([2]; first compound 1.581 µM) was 0.581. For the same cell line, the relative viability ([2]; first compound 5 µM) was 0.642, the relative viability ([3]; first compound 0.05 µM) was 0.949 and the relative viability ([3]; first compound 0.1581 µM) was 0.905. For the same cell line, the relative viability ([3]; first compound 0.5 µM) was 0.967, the relative viability ([3]; first compound 1.581 µM) was 0.882 and the relative viability ([3]; first compound 5 µM) was 0.527. The relative viability ([4]; first compound 0.05 µM) was 0.551, the relative viability ([4]; first compound 0.1581 µM) was 0.761 and the relative viability ([4]; first compound 0.5 µM) was 0.719. For the same cell line, the relative viability ([4]; first compound 1.581 µM) was 0.711 and the relative viability ([4]; first compound 5 µM) was 0.429.
With NCI-H838 the relative viability ([1]; 0.05 µM) was 0.955, the relative viability ([1]; 0.1581 µM) was 1.06 and the relative viability ([1]; 0.5 µM) was 0.882. For the same cell line, the relative viability ([1]; 1.581 µM) was 0.885, the relative viability ([1]; 5 µM) was 0.878 and the relative viability ([2]; first compound 0.05 µM) was 0.238. It also gave a relative viability ([2]; first compound 0.1581 µM) of 0.228, a relative viability ([2]; first compound 0.5 µM) of 0.211 and a relative viability ([2]; first compound 1.581 µM) of 0.178. It also gave a relative viability ([2]; first compound 5 µM) of 0.224, a relative viability ([3]; first compound 0.05 µM) of 1.1 and a relative viability ([3]; first compound 0.1581 µM) of 1.2. It also gave a relative viability ([3]; first compound 0.5 µM) of 1.01, a relative viability ([3]; first compound 1.581 µM) of 1.11 and a relative viability ([3]; first compound 5 µM) of 0.965. For the same cell line, the relative viability ([4]; first compound 0.05 µM) was 0.386, the relative viability ([4]; first compound 0.1581 µM) was 0.416 and the relative viability ([4]; first compound 0.5 µM) was 0.371. The relative viability ([4]; first compound 1.581 µM) was 0.367 and the relative viability ([4]; first compound 5 µM) was 0.338.
NCI-H1355 showed a relative viability ([1]; 0.05 µM) of 0.973, a relative viability ([1]; 0.1581 µM) of 1.07 and a relative viability ([1]; 0.5 µM) of 1.04. For the same cell line, the relative viability ([1]; 1.581 µM) was 0.919, the relative viability ([1]; 5 µM) was 0.883 and the relative viability ([2]; first compound 0.05 µM) was 0.371. The relative viability ([2]; first compound 0.1581 µM) was 0.425, the relative viability ([2]; first compound 0.5 µM) was 0.397 and the relative viability ([2]; first compound 1.581 µM) was 0.385. For the same cell line, the relative viability ([2]; first compound 5 µM) was 0.382, the relative viability ([3]; first compound 0.05 µM) was 1.05 and the relative viability ([3]; first compound 0.1581 µM) was 1.21. For the same cell line, the relative viability ([3]; first compound 0.5 µM) was 0.967, the relative viability ([3]; first compound 1.581 µM) was 0.89 and the relative viability ([3]; first compound 5 µM) was 0.955. The relative viability ([4]; first compound 0.05 µM) was 0.442, the relative viability ([4]; first compound 0.1581 µM) was 0.469 and the relative viability ([4]; first compound 0.5 µM) was 0.416. It also gave a relative viability ([4]; first compound 1.581 µM) of 0.372 and a relative viability ([4]; first compound 5 µM) of 0.328.
NCI-H1395 was tested, and the relative viability ([1]; 0.05 µM) was 0.813, the relative viability ([1]; 0.1581 µM) was 0.713 and the relative viability ([1]; 0.5 µM) was 0.926. The relative viability ([1]; 1.581 µM) was 0.548, the relative viability ([1]; 5 µM) was 0.45 and the relative viability ([2]; first compound 0.05 µM) was 0.628. It also gave a relative viability ([2]; first compound 0.1581 µM) of 0.492, a relative viability ([2]; first compound 0.5 µM) of 0.567 and a relative viability ([2]; first compound 1.581 µM) of 0.421. The relative viability ([2]; first compound 5 µM) was 0.419, the relative viability ([3]; first compound 0.05 µM) was 0.99 and the relative viability ([3]; first compound 0.1581 µM) was 0.94. The relative viability ([3]; first compound 0.5 µM) was 0.914, the relative viability ([3]; first compound 1.581 µM) was 0.589 and the relative viability ([3]; first compound 5 µM) was 0.455. It also gave a relative viability ([4]; first compound 0.05 µM) of 0.606, a relative viability ([4]; first compound 0.1581 µM) of 0.574 and a relative viability ([4]; first compound 0.5 µM) of 0.631. It also gave a relative viability ([4]; first compound 1.581 µM) of 0.487 and a relative viability ([4]; first compound 5 µM) of 0.338.
NCI-H1437 was tested, and the relative viability ([1]; 0.05 µM) was 1.02, the relative viability ([1]; 0.1581 µM) was 1.11 and the relative viability ([1]; 0.5 µM) was 1.06. The relative viability ([1]; 1.581 µM) was 0.847, the relative viability ([1]; 5 µM) was 0.832 and the relative viability ([2]; first compound 0.05 µM) was 0.311. The relative viability ([2]; first compound 0.1581 µM) was 0.321, the relative viability ([2]; first compound 0.5 µM) was 0.339 and the relative viability ([2]; first compound 1.581 µM) was 0.259. For the same cell line, the relative viability ([2]; first compound 5 µM) was 0.231, the relative viability ([3]; first compound 0.05 µM) was 1.24 and the relative viability ([3]; first compound 0.1581 µM) was 1.4. For the same cell line, the relative viability ([3]; first compound 0.5 µM) was 1.41, the relative viability ([3]; first compound 1.581 µM) was 1.32 and the relative viability ([3]; first compound 5 µM) was 1.19. It also gave a relative viability ([4]; first compound 0.05 µM) of 0.826, a relative viability ([4]; first compound 0.1581 µM) of 1.11 and a relative viability ([4]; first compound 0.5 µM) of 0.954. The relative viability ([4]; first compound 1.581 µM) was 0.803 and the relative viability ([4]; first compound 5 µM) was 0.733.
Work on NCI-H1650 yielded a relative viability ([1]; 0.05 µM) of 0.862, a relative viability ([1]; 0.1581 µM) of 1.08 and a relative viability ([1]; 0.5 µM) of 1.12. The relative viability ([1]; 1.581 µM) was 0.707, the relative viability ([1]; 5 µM) was 0.494 and the relative viability ([2]; first compound 0.05 µM) was 0.248. It also gave a relative viability ([2]; first compound 0.1581 µM) of 0.366, a relative viability ([2]; first compound 0.5 µM) of 0.281 and a relative viability ([2]; first compound 1.581 µM) of 0.244. It also gave a relative viability ([2]; first compound 5 µM) of 0.254, a relative viability ([3]; first compound 0.1581 µM) of 1.3 and a relative viability ([3]; first compound 0.5 µM) of 1.2. For the same cell line, the relative viability ([3]; first compound 1.581 µM) was 1.05, the relative viability ([3]; first compound 5 µM) was 0.658 and the relative viability ([4]; first compound 0.1581 µM) was 0.634. The relative viability ([4]; first compound 0.5 µM) was 0.726, the relative viability ([4]; first compound 1.581 µM) was 0.467 and the relative viability ([4]; first compound 5 µM) was 0.345.
For NCI-H1651, the relative viability ([1]; 0.05 µM) was 1.01, the relative viability ([1]; 0.1581 µM) was 0.993 and the relative viability ([1]; 0.5 µM) was 0.917. The relative viability ([1]; 1.581 µM) was 0.783, the relative viability ([1]; 5 µM) was 0.503 and the relative viability ([2]; first compound 0.05 µM) was 0.556. For the same cell line, the relative viability ([2]; first compound 0.1581 µM) was 0.564, the relative viability ([2]; first compound 0.5 µM) was 0.536 and the relative viability ([2]; first compound 1.581 µM) was 0.502. It also gave a relative viability ([2]; first compound 5 µM) of 0.424, a relative viability ([3]; first compound 0.05 µM) of 0.828 and a relative viability ([3]; first compound 0.1581 µM) of 1. It also gave a relative viability ([3]; first compound 0.5 µM) of 0.887, a relative viability ([3]; first compound 1.581 µM) of 0.496 and a relative viability ([3]; first compound 5 µM) of 0.213. It also gave a relative viability ([4]; first compound 0.05 µM) of 0.653, a relative viability ([4]; first compound 0.1581 µM) of 0.787 and a relative viability ([4]; first compound 0.5 µM) of 0.618. The relative viability ([4]; first compound 1.581 µM) was 0.453 and the relative viability ([4]; first compound 5 µM) was 0.242.
NCI-H1666 was tested, and the relative viability ([1]; 0.05 µM) was 1.02, the relative viability ([1]; 0.1581 µM) was 1.04 and the relative viability ([1]; 0.5 µM) was 1.02. For the same cell line, the relative viability ([1]; 1.581 µM) was 0.981, the relative viability ([1]; 5 µM) was 0.875 and the relative viability ([2]; first compound 0.05 µM) was 0.674. For the same cell line, the relative viability ([2]; first compound 0.1581 µM) was 0.654, the relative viability ([2]; first compound 0.5 µM) was 0.649 and the relative viability ([2]; first compound 1.581 µM) was 0.615. The relative viability ([2]; first compound 5 µM) was 0.618, the relative viability ([3]; first compound 0.05 µM) was 0.936 and the relative viability ([3]; first compound 0.1581 µM) was 1.05. For the same cell line, the relative viability ([3]; first compound 0.5 µM) was 0.888, the relative viability ([3]; first compound 1.581 µM) was 1.05 and the relative viability ([3]; first compound 5 µM) was 0.919. For the same cell line, the relative viability ([4]; first compound 0.05 µM) was 0.827, the relative viability ([4]; first compound 0.1581 µM) was 0.966 and the relative viability ([4]; first compound 0.5 µM) was 0.913. For the same cell line, the relative viability ([4]; first compound 1.581 µM) was 0.812 and the relative viability ([4]; first compound 5 µM) was 0.66.
